80 compounds from the METLIN SMRT retention time set (Domingo-Almenara et al. 2019) can be followed below.

Molecules are shown by their SMILES.

This data set in a line: gradient 5% acetonitrile 3 min, to 50% in 2 min, to 85% in 15 min, held 3 min, 100 µL/min. To be noted: column: Zorbax Extend-C18 2.1 x 50 mm; eluents: water / acetonitrile, 0.1% formic acid. In outline:
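In both positive and negative ionization mode, a quadrupole time-of-flight mass spectrometer coupled to HPLC analyzed pure standards run in mixtures of ~100 molecules. The Zorbax Extend-C18 column (2.1 × 50 mm, 1.8 μm) was operated at 100 μL/min with water and acetonitrile, each containing 0.1% formic acid. The dead volume was 40 μL and the dwell volume 900 μL. Retention time came from adduct peaks that were computationally picked and individually inspected by hand.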
Compound `CCC(C)NS(=O)(=O)c1c(C)nn(-c2ccc(-c3ccc(C)cc3)nn2)c1C` (stereo not given) displayed an RP-LC retention time of 1040 s.

`Cc1ccccc1NC(=O)c1cn2c(n1)CCCC2` came in with an RP-LC retention time of 586 s. For `CSc1ccc(CNC(=O)Cc2nnc(-c3cccc(F)c3)o2)cc1` the value was 794 s. For `CCc1nnc(-c2ccc3ccn(CC(=O)NCCc4ccc(OC)c(OC)c4)c3c2)o1` the value was 760 s; for `CCN(CC)C(=O)CN1CCN(c2cc(C(=O)O)c3cc(NC(=O)C(C)(C)C)ccc3n2)CC1`, 572 s. The figure for `COc1ccc(C(=O)N2CCc3c(c(C(=O)N4CCCC(C(=O)NC5CC5)C4)nn3C)C2)c(OC)c1` (stereo not given) is 638 s; for `CCOC(=O)N1CCN(C(=O)CN2C(=O)c3ccccc3S2(=O)=O)CC1` it is 643 s. The compound `COc1ccccc1C(=O)NCCc1nc2cccnc2n1C(C)C` registered an RP-LC retention time of 718 s.

As to `CCc1cccc(NC(=O)C2CCN(S(=O)(=O)c3cn(C(C)C)cn3)CC2)c1`, the RP-LC retention time came to 840 s. Turning to `Cc1ccc(C)c(-c2cc3c(=O)n(Cc4nc(-c5ccc(F)cc5)no4)ncn3n2)c1`, the RP-LC retention time turned out to be 1210 s.

As to `CC(C)CC(=O)N1C[C@H](c2nc(-c3cccnc3)no2)[C@@H](C)C1`, the RP-LC retention time amounted to 751 s.

Turning to `CCc1nnc([C@@H]2CC(F)(F)CN2C(=O)Cc2c(C)noc2C)o1`, the RP-LC retention time is 681 s.

As for `CC(C)NC(=O)C1CCN(c2cnn(Cc3ccccc3)c(=O)c2)CC1`, the RP-LC retention time came out at 689 s.

As for `COc1ccc(NC(=O)C2CCN(c3cc(N4CCCC4)ncn3)CC2)cc1Cl`, the RP-LC retention time stood at 677 s.

Take `Cc1nc(NC(=O)N2CCC[C@H]2C(N)=O)sc1-c1ccnc(C(C)(C)C(F)(F)F)c1`: the RP-LC retention time was 746 s. Regarding `CCOC(=O)CCc1c(C)nn(-c2cc(N(C)C)ncn2)c1C`, the RP-LC retention time amounted to 834 s. For `Cc1ccc(S(=O)(=O)N2CCC(n3c(-c4ccoc4)nc4cccnc43)C2)cc1F` (stereo not given) the value was 910 s. For `CN(CCc1ccc(Cl)c(Cl)c1)CC(O)COc1ccc(NS(C)(=O)=O)cc1` (stereo not given) the value was 715 s; for `CN1C(=O)c2cc(C(=O)NCc3cccc(F)c3)nn2CC1(C)C(=O)NCc1ccccc1` (stereo not given), 747 s; for `O=C(c1cccs1)N1CCC(c2nncn2Cc2ccccc2)CC1`, 673 s. The figure for `CCN1CCCC1CNS(=O)(=O)c1cc(-c2nc(C)c(C(=O)N3CCCC3)s2)cs1` (stereo not given) is 604 s. For the compound `Cc1cc(OCC(=O)N2CCC3(O)CCCCC3C2)c2c(C)c(C)c(=O)oc2c1` (stereo not given), the RP-LC retention time was 798 s. In turn, `O=C(CC1CCN(C(=O)c2ccc3oc(C4CC4)nc3c2)CC1)NCc1ccco1` came in with an RP-LC retention time of 693 s. The compound `Nc1nnc(-c2ccc(Br)s2)o1` came in with an RP-LC retention time of 628 s. The figure for `Cc1nn(-c2ccc(-c3noc(C4CC4)n3)cc2)cc1C(=O)NC1CCCC1` is 940 s; for `O=C(Cn1cnc2c(sc3nc(-c4ccccc4)ccc32)c1=O)NCc1ccc2c(c1)OCO2` it is 950 s; for `O=c1c2oc3ccccc3c2ncn1Cc1nc(-c2cccc(Br)c2)no1` it is 1060 s.

`Cc1oc2ncnc(N3CCCC(C(=O)NCc4cccc(Cl)c4)C3)c2c1C` (stereo not given) yielded an RP-LC retention time of 920 s.

On to `CC12C(=O)OC(=O)C1(C)C1CCC2O1` (stereo not given), for which the RP-LC retention time amounted to 813 s. Compound `Cn1cccc1CN(Cc1cccs1)C(=O)CN1C(=O)CCC1=O` showed an RP-LC retention time of 731 s. The figure for `CCC(=O)NCc1nc2c(n1C)CN(C(=O)c1ccc(Br)cc1)CC2` is 605 s.

`CN(C)C(=O)c1n[nH]c2c1CN(S(=O)(=O)c1ccccc1)CC2` came in with an RP-LC retention time of 660 s. For `CCc1nc(-c2cc(S(=O)(=O)Nc3ccc(F)cc3F)c(C)s2)cs1` the value was 994 s; for `COc1ccc(C)cc1Nc1nc(C(=O)Nc2cccnc2)cs1`, 637 s; for `O=C(Nc1c(-c2ccc(F)cc2)nc2ccccn12)c1ccccc1`, 638 s. In turn, `Cc1cc2c(=O)n(CC(=O)NCc3ccccc3F)ccc2s1` returned an RP-LC retention time of 732 s. Compound `Cc1ccsc1C(=O)Nc1ccc(-c2nnc3n2CCCC3)cc1` showed an RP-LC retention time of 666 s. The figure for `O=C(O)c1cc(-c2ccccc2)nc2ccccc12` is 849 s.

In turn, `CCCCNC(=O)CN1C(=O)C2CCCCN2c2ccc(C(=O)N3CCCC3)cc21` (stereo not given) displayed an RP-LC retention time of 743 s.

With `CCCNc1cc(N2CCC(CCC(=O)NCCc3cccnc3)CC2)ncn1`, the RP-LC retention time stood at 542 s. Compound `Cc1ccc(/C=C2\CCOC2=O)cc1` came in with an RP-LC retention time of 916 s. `COCCNC(=O)c1cc2occc2c(Nc2ccc(Br)c(C)c2)n1` displayed an RP-LC retention time of 1040 s. The figure for `CCNC(=O)Nc1ccc2c(c1)CN(S(=O)(=O)c1cn(C)cn1)CCO2` is 625 s; for `CC(NC(=O)Cn1cc(C(=O)c2ccco2)c2ccccc21)c1ccc2c(c1)OCCCO2` (stereo not given) it is 837 s; for `COCC1CN(C(C)=O)CC12CCN(C(=O)C1CC=CCC1)CC2` (stereo not given) it is 671 s. Turning to `CC1CCC2(CC1)NC(=O)N(CC(=O)NCc1ccc3c(c1)OCO3)C2=O` (stereo not given), the RP-LC retention time is 749 s. The figure for `CCOc1ccc(-c2csc(NC(=O)CCCOc3ccc(Cl)cc3)n2)cc1` is 810 s; for `CCOc1ccccc1NC(=O)NC(C)C(=O)N1CCc2ccccc21` (stereo not given) it is 936 s. The figure for `COc1ccc(C2Nc3ccc(C)cc3[C@H]3OCCC[C@@H]23)cc1O` (stereo not given in full) is 894 s; for `CC(=O)Nc1ccc(C(=O)N2CCC3(CC2)N=C(c2cccc(Br)c2)NO3)cc1` it is 731 s.

For `Cc1ccc(Nc2nc(C)cc(N3CCN(S(=O)(=O)c4cc(F)ccc4F)CC3)n2)cc1`, the RP-LC retention time was 797 s. Compound `COC(=O)c1ccc2c(=O)n(-c3ccccc3)c(N3CCN(C)CC3)nc2c1` yielded an RP-LC retention time of 624 s. The figure for `COCCN1CCC(CNC(=O)C(=O)Nc2cccc(SC)c2)CC1` is 563 s. For `CCC(=O)N1CCc2cc(C)c(S(=O)(=O)NC3CCCC3)cc21` the value was 869 s; for `Cc1c(-c2noc(-c3ccc4c(c3)OCO4)n2)nnn1Cc1ccccc1`, 1010 s. `CN(C)c1cccc(C(=O)NCc2nn(C)c3ccccc23)c1` registered an RP-LC retention time of 709 s. For the compound `CN(C)c1ncncc1N1CCC(C(=O)NCCC2=CCCCC2)CC1`, the RP-LC retention time was 679 s. The figure for `CCS(=O)(=O)c1cccc(C(=O)Nc2nnc(-c3ccsc3)o2)c1` is 662 s; for `Cc1cccc2nc(-c3cccc(Br)c3)c(Nc3ccc4c(c3)OCCO4)n12` it is 739 s. `COc1cccc(C2Cn3nnc(-c4nc(-c5ccc(C(F)(F)F)cc5)no4)c3CO2)c1` (stereo not given) displayed an RP-LC retention time of 1270 s. The figure for `O=C(NCCc1c[nH]c2ccccc12)c1cc(=O)[nH]c2ccccc12` is 682 s. The figure for `O=C(NC1CCCC1)c1ccc(Cn2nc(N3CCN(c4ccc(F)cc4)CC3)ccc2=O)o1` is 853 s; for `O=C(Nc1cc(-c2ccccc2)nn1CCO)c1ccsc1` it is 726 s. The compound `COc1cc(F)ccc1-c1ccnc2nc(C3CCC3)nn12` registered an RP-LC retention time of 864 s.

Compound `Cc1cccc(CN2N=C(C(=O)N3CCOCC3)S(=O)(=O)c3ccc(C)cc32)c1` came in with an RP-LC retention time of 835 s. The figure for `NC[C@@](O)(c1ccc(Cl)cc1)c1ccc(-c2cn[nH]c2)cc1` is 678 s; for `CC1=C(c2ccc(Cl)cc2)S(=O)(=O)N=C1N1CCCN(C(=O)NC(C)C)CC1` it is 780 s; for `COc1ccc2c(c1)c(CN1CCC(C(=O)NCCN3CCCCC3)CC1)cn2C` it is 562 s.

`Cc1nn(-c2ccccc2)c(C)c1S(=O)(=O)N1CCC(C(=O)NC2CCCCC2)CC1` returned an RP-LC retention time of 912 s. The figure for `c1ccc(-c2nnc3nc(N4CCCCC4)nc(N4CCCCC4)n23)cc1` is 1260 s.

Regarding `COc1ccc(-c2cc3nn(CC(=O)NCC4CCCO4)c(=O)n3c(C)n2)cc1` (stereo not given), the RP-LC retention time amounted to 728 s.

Compound `CCCNc1cc(N2CCCC(CCC(=O)Nc3ccc(OCC)cc3)C2)ncn1` (stereo not given) returned an RP-LC retention time of 728 s. The figure for `CC(CCc1ccccc1)NC(=O)C1CCCN(c2nccnc2Oc2ccccc2)C1` (stereo not given) is 1100 s; for `COc1ccc(OCC(O)CN(CCO)CC(O)Cn2ccc3ccccc32)cc1` (stereo not given) it is 591 s. `CCOc1cccc(CNc2nccc(-n3nc(C)cc3C)n2)c1` had an RP-LC retention time of 858 s.

Consider `Cc1ccc(C)c(-c2coc(-c3ccc(NC(=O)NCCc4ccccc4)cc3)n2)c1`, for which the RP-LC retention time is 1240 s.

In the case of `O=C1C2CC=CCC2C(=O)N1c1ccc(N2CCN(c3ccccn3)CC2)c([N+](=O)[O-])c1` (stereo not given), the RP-LC retention time turned out to be 676 s. For the compound `O=C(Nc1ccc(Br)cc1)N(c1ccccc1)c1ccccc1`, the RP-LC retention time stood at 1040 s.

`CCOc1ccc(-n2nnnc2CNC(=O)CCCN2C(=O)c3ccccc3C2=O)cc1` yielded an RP-LC retention time of 734 s. The figure for `CCc1ccc(CNC(=O)c2cc3ccncc3n2C)cc1` is 648 s.
